Common to all, as to assay type: cell-based
The target of assay [1] is T1, human P2X3 receptor (Homo sapiens, UniProt P56373).
T1 sequence (P56373 1-397): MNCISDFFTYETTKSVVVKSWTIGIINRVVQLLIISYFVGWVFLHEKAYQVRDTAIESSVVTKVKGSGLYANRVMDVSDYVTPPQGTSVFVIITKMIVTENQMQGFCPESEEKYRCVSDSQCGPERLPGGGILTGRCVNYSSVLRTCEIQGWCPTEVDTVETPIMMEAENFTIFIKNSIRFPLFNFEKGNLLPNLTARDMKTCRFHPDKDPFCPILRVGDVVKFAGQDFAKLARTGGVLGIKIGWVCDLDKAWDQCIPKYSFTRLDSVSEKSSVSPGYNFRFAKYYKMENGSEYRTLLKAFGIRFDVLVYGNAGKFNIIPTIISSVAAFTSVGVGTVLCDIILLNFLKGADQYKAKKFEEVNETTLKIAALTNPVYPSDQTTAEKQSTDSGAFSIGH
In words: Intracellular calcium measurement to assess antagonist activity at human P2X3 receptors (hP2X3 CHO), photina luminescence. The arrangement: expressed in transfected cells; host or cells: Chinese hamster ovary (CHO) cells. The settings on record: column 2), CHO cells, agonist α,β-methylene-ATP at EC50. A digest of the protocol:
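Antagonism read as lowered photina luminescence after agonist stimulation in recombinant hP2X3/photina CHO cells. Cells seeded one day earlier (30 °C) and reconstituted with 5 μg/ml coelenterazine in 2 mM Ca-tyrode buffer for 3 h at 37 °C before measurement.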

The target of assay [2] is T1, human P2X3 receptor. As to the kind of experiment: Intracellular calcium measurement, antagonist activity at human P2X3 receptors (hP2X3 1321N1), Fluo8. Also on record: expressed in transfected cells; host or cells: human astrocytoma 1321N1 (1312N1 [sic]). Conditions: column 3); 1321N1 cells, human P2X3, Fluo8, agonist ATP at EC50. A digest of the protocol: (§1)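 Antagonism was assessed by decrease of the Fluo8 calcium signal after ATP challenge, with ATP dosed at the EC50 of whichever receptor was tested. Stable 1321N1 astrocytoma lines expressed either human P2X3 or both P2X2 and P2X3, and were dye-loaded 60 min before a 10 min compound incubation.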
A general note: A change in cytosolic calcium serves as a functional read-out for many receptors and channels.

A further assay concerns the target T2, human P2X2/3 receptors (Homo sapiens, UniProt P56373+Q9UBL9).
T2 construct: expressed in transfected cells; host or cells: human astrocytoma 1321N1 (1312N1 [sic])
T2 sequence (P56373 1-397): T1 sequence (P56373 1-397)
T2 sequence (Q9UBL9 1-471): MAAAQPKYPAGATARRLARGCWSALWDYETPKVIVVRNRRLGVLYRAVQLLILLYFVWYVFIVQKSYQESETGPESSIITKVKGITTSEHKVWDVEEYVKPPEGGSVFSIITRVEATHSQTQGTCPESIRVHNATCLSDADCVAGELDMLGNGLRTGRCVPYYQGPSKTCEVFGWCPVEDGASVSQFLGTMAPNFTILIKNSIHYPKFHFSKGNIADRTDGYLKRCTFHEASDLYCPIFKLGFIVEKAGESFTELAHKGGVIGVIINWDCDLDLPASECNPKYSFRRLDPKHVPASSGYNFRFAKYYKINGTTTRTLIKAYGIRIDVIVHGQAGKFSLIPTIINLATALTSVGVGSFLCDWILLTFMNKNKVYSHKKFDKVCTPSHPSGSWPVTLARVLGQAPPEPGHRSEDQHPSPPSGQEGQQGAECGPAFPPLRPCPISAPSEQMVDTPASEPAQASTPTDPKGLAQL
As to the kind of experiment: Intracellular calcium measurement, antagonist activity at human P2X2/3 receptors (hP2X23 1321N1), Fluo8. Conditions: for IC50: column 4); 1321N1 cells, human P2X2/3, Fluo8, agonist ATP at EC50; read-out: 4) hP2X2/3 IC50 [nM] (1321N1); for hP2X23/hP2X3* Selectivity (1321N1): ratio of column 4) hP2X2/3 to column 3) hP2X3, 1321N1. The method in brief: as §1

Molecules are shown by their SMILES. Where a name gives a salt, the structure may show the parent alone.

In the case of `CCc1cc2n(CC(=O)Nc3ccc(F)cn3)c3c(c(=O)n2n1)CN(C[C@H]1CCCN1)C3=O` [Example 233, 2-{2-ethyl-5,8-dioxo-6-[(2R)-pyrrolidin-2-ylmethyl]-5,6,7,8-tetrahydro-4H-pyrazolo[1,5-a]pyrrolo[3,4-d]pyrimidin-4-yl}-N-(5-fluoropyridin-2-yl)acetamide hydrochloride (1:1)], the IC50 is 335 nM on human P2X3 receptor [1], 1060 nM on human P2X3 receptor [2] and above 32000 nM on human P2X2/3 receptors. Further, the “hP2X23/hP2X3* Selectivity (1321N1)” value at human P2X2/3 receptors is listed as above 30.
As to `CC(C)N1Cc2c(n(CC(=O)Nc3ccc(F)cn3)c3cc(C4CCNCC4)nn3c2=O)C1=O.Cl` [Example 234, 2-[5,8-dioxo-2-(piperidin-4-yl)-6-(propan-2-yl)-5,6,7,8-tetrahydro-4H-pyrazolo[1,5-a]pyrrolo[3,4-d]pyrimidin-4-yl]-N-(5-fluoropyridin-2-yl)acetamide hydrochloride (1:1)], the IC50 at human P2X3 receptor [1] is 125 nM; on human P2X3 receptor [2], 370 nM; at human P2X2/3 receptors, above 32000 nM. Moreover, at human P2X2/3 receptors, the “hP2X23/hP2X3* Selectivity (1321N1)” value is listed as above 86.
Taken in the same sequence, the figures for `CCc1cc2n(CC(=O)Nc3ccc(F)cn3)c3c(c(=O)n2n1)CN(CC1CCNC1)C3=O.Cl` (stereo not drawn) [Example 238] were 550 nM, 650 nM, above 32000 nM and above 49.
In the same order, the values of `CCc1cc2n(CC(=O)Nc3ccc(F)cn3)c3c(c(=O)n2n1)CN(CC1CCCN1)C3=O.Cl` (stereo not drawn) [Example 239] are 220 nM, 650 nM, above 32000 nM and above 49.
Taken in the same sequence, the figures for `CCc1cc2n(CC(=O)Nc3ccc(F)cn3)c3c(c(=O)n2n1)CN(CC1CCNCC1)C3=O.Cl` [Example 240] were 628 nM, 1270 nM, above 32000 nM and above 25.
On to `CC(C)N1Cc2c(n(CC(=O)Nc3ccc(F)cn3)c3cc(C4CNC4)nn3c2=O)C1=O.Cl` [Example 244], for which the results for the IC50 at human P2X3 receptor [1], on human P2X3 receptor [2] and at human P2X2/3 receptors were 330 nM, 280 nM and 7900 nM, respectively. Also, the “hP2X23/hP2X3* Selectivity (1321N1)” value at human P2X2/3 receptors was 28.
In the same order, the values of `CCc1cc2n(CC(=O)Nc3ccc(F)cn3)c3c(c(=O)n2n1)CN(CCN)C3=O` [Example 245, 2-[6-(2-aminoethyl)-2-ethyl-5,8-dioxo-5,6,7,8-tetrahydro-4H-pyrazolo[1,5-a]pyrrolo[3,4-d]pyrimidin-4-yl]-N-(5-fluoropyridin-2-yl)acetamide] are 425 nM, 345 nM, above 21000 nM and above 61.
`CCc1cc2n(CC(=O)Nc3ccc(F)cn3)c3c(c(=O)n2n1)CN(C[C@@H]1CNCCO1)C3=O` [Example 246, 2-{2-ethyl-6-[(2S)-morpholin-2-ylmethyl]-5,8-dioxo-5,6,7,8-tetrahydro-4H-pyrazolo[1,5-a]pyrrolo[3,4-d]pyrimidin-4-yl}-N-(5-fluoropyridin-2-yl)acetamide]: the IC50 on human P2X3 receptor [1] was 830 nM; at human P2X3 receptor [2], 2200 nM; on human P2X2/3 receptors it was above 32000 nM. Also, on human P2X2/3 receptors, the “hP2X23/hP2X3* Selectivity (1321N1)” value is given as above 15.
Taken in the same sequence, the figures for `CCc1cc2n(CC(=O)Nc3ccc(F)cn3)c3c(c(=O)n2n1)CN(C[C@H]1CNCCO1)C3=O` [Example 247, 2-{2-ethyl-6-[(2R)-morpholin-2-ylmethyl]-5,8-dioxo-5,6,7,8-tetrahydro-4H-pyrazolo[1,5-a]pyrrolo[3,4-d]pyrimidin-4-yl}-N-(5-fluoropyridin-2-yl)acetamide] were 360 nM, 937 nM, above 32000 nM and above 34.
In the same order, the values of `CCc1cc2n(CC(=O)Nc3ccc(F)cn3)c3c(c(=O)n2n1)CN(C[C@@H]1COCCN1)C3=O` [Example 248, 2-{2-ethyl-6-[(3R)-morpholin-3-ylmethyl]-5,8-dioxo-5,6,7,8-tetrahydro-4H-pyrazolo[1,5-a]pyrrolo[3,4-d]pyrimidin-4-yl}-N-(5-fluoropyridin-2-yl)acetamide] are 185 nM, 740 nM, above 32000 nM and above 43.
In the same order, the values of `CC(C)N1Cc2c(n(CC(=O)Nc3ccc(F)cn3)c3cc(C4CCN(C5CCC5)C4)nn3c2=O)C1=O` (stereo not drawn) [Example 250] are 162 nM, 118 nM, 4300 nM and 36.
As for `CC(C)N1Cc2c(n(CC(=O)Nc3ccc(F)cn3)c3cc(C4CCN(C)CC4)nn3c2=O)C1=O` [Example 251], the figures for the IC50 on human P2X3 receptor [1], at human P2X3 receptor [2] and at human P2X2/3 receptors were 235 nM, 195 nM and above 32000 nM, respectively. Besides, the “hP2X23/hP2X3* Selectivity (1321N1)” value on human P2X2/3 receptors is above 164.
In the same order, the values of `CC(C)N1Cc2c(n(CC(=O)Nc3ccc(F)cn3)c3cc(C4CCN(C5CCC5)CC4)nn3c2=O)C1=O` [Example 252] are 460 nM, 350 nM, above 32000 nM and above 91.
Taken in the same sequence, the figures for `CCc1cc2n(CC(=O)Nc3ccc(F)cn3)c3c(c(=O)n2n1)CN(C1CCN(C)C1)C3=O` (stereo not drawn) [Example 253] were 493 nM, 793 nM, above 32000 nM and above 40.
Taken in the same sequence, the figures for `CCc1cc2n(CC(=O)Nc3ccc(F)cn3)c3c(c(=O)n2n1)CN(C[C@H]1CN(C)CCO1)C3=O` [Example 255, 2-(2-ethyl-6-{[(2R)-4-methylmorpholin-2-yl]methyl}-5,8-dioxo-5,6,7,8-tetrahydro-4H-pyrazolo[1,5-a]pyrrolo[3,4-d]pyrimidin-4-yl)-N-(5-fluoropyridin-2-yl)acetamide] were 400 nM, 440 nM, 11300 nM and 26.
In the case of `CCc1cc2n(CC(=O)Nc3ccc(F)cn3)c3c(c(=O)n2n1)CN(C[C@H]1CN(C(C)C)CCO1)C3=O` [Example 256, 2-(2-ethyl-5,8-dioxo-6-{[(2R)-4-(propan-2-yl)morpholin-2-yl]methyl}-5,6,7,8-tetrahydro-4H-pyrazolo[1,5-a]pyrrolo[3,4-d]pyrimidin-4-yl)-N-(5-fluoropyridin-2-yl)acetamide], the IC50 at human P2X3 receptor [1] is 42 nM; on human P2X3 receptor [2] it was 53 nM; at human P2X2/3 receptors it was 1590 nM. The “hP2X23/hP2X3* Selectivity (1321N1)” value on human P2X2/3 receptors is listed as 30.
Regarding `CCc1cc2n(CC(=O)Nc3ccc(F)cn3)c3c(c(=O)n2n1)CN(C[C@H]1CN(C2CCC2)CCO1)C3=O` [Example 257], the IC50 at human P2X3 receptor [1] was found to be 54 nM; on human P2X3 receptor [2], 57 nM; on human P2X2/3 receptors, 660 nM. In addition, the “hP2X23/hP2X3* Selectivity (1321N1)” value on human P2X2/3 receptors is 12.
`CCc1cc2n(CC(=O)Nc3ccc(F)cn3)c3c(c(=O)n2n1)CN(C[C@H]1CN(C2CC2)CCO1)C3=O` [Example 258]: the IC50 worked out at 66 nM at human P2X3 receptor [1], 52 nM on human P2X3 receptor [2] and 1080 nM on human P2X2/3 receptors. Also, the “hP2X23/hP2X3* Selectivity (1321N1)” value at human P2X2/3 receptors is given as 21.
For the molecule `CCc1cc2n(CC(=O)Nc3ccc(F)cn3)c3c(c(=O)n2n1)CN(C[C@H]1CN(CCC(F)(F)F)CCO1)C3=O` [Example 259], the values for the IC50 on human P2X3 receptor [1], at human P2X3 receptor [2] and at human P2X2/3 receptors were 33 nM, 71 nM and 1170 nM, respectively. Also, the “hP2X23/hP2X3* Selectivity (1321N1)” value on human P2X2/3 receptors is reported as 16.
Turning to `CCc1cc2n(CC(=O)Nc3ccc(F)cn3)c3c(c(=O)n2n1)CN(C[C@@H]1COCCN1C(C)C)C3=O` [Example 260], the IC50 at human P2X3 receptor [1] is 108 nM; on human P2X3 receptor [2] it was 141 nM; at human P2X2/3 receptors, above 20600 nM. Further, the “hP2X23/hP2X3* Selectivity (1321N1)” value at human P2X2/3 receptors is above 146.
In the same order, the values of `CCc1cc2n(CC(=O)Nc3ccc(F)cn3)c3c(c(=O)n2n1)CN(C[C@@H]1COCCN1CCC(F)(F)F)C3=O` [Example 261] are 41 nM, 39 nM, 5550 nM and 142.

The values above are taken from patent US11319324B2, “Pyrazolo-pyrrolo-pyrimidine-dione derivatives as P2X3 inhibitors” (Bayer Aktiengesellschaft, priority 2017, dated 2022).
